Laboratory results from ChEMBL document CHEMBL5532640, “Medicinal chemistry strategies targeting NLRP3 inflammasome pathway: A recent update from 2019 to mid-2023” (Eur J Med Chem, 2023).
Values after ≈ are worked out from the molar mass of the structure shown. One block for each compound: values may come before it.

Experiments:
[1] = target: T1, NACHT, LRR and PYD domains-containing protein 3 (Mus musculus, UniProt Q8R4B8); experiment: Inhibition of NLRP3 in LPS/ATP induced mouse J774.A1 cells; format: cell-based
[2] = Cytotoxicity against mouse J774.A1 cells; format: toxicity, cell-based; settings: read-out: TC50 (the source's name)
[3] = Cmax in human at 1000 mg per day, po administered for 8 consecutive days; format: ADME, organism-based; settings: in vivo
[4] = target: T2, NACHT, LRR and PYD domains-containing protein 3 (Homo sapiens, UniProt Q96P20); experiment: Inhibition of NLRP3 inflammasome in human MDM cells assessed as reduction in LPS/nigericin induced IL-1beta secretion […] prior to nigericin addition and measured after 5 hrs by ELISA; format: cell-based
[5] = Inhibition of LPS/nigericin induced LDH release in mouse J774.A1 cells; format: functional, cell-based
[6] = target: T1, NACHT, LRR and PYD domains-containing protein 3; experiment: Inhibition of NLRP3 in mouse J774.A1 cells assessed as reduction in LPS/ATP induced IL-1beta secretion; format: cell-based
[7] = target: T1, NACHT, LRR and PYD domains-containing protein 3; experiment: Inhibition of NLRP3 in mouse BMDMs assessed as reduction in LPS/ATP-induced IL-1beta release preincubated for 30 mins in presence of LPS followed by ATP addition and measured after 1 hr by ELISA; format: cell-based, BMDM
[8] = target: T1, NACHT, LRR and PYD domains-containing protein 3; experiment: Inhibition of NLRP3 inflammasome in mouse J774.A1 cells assessed as decrease in LPS/nigericin induced IL-1beta level preincubated with LPS for 4 hrs followed by compound addition for 1 hr in presence nigericin by ELISA; format: cell-based
[9] = target: T2, NACHT, LRR and PYD domains-containing protein 3; experiment: Inhibition of NLRP3 in human THP-1 cells assessed as reduction in LPS/ATP induced IL-1beta release at 10 uM preincubated with LPS for 4 hrs followed by compound addition for 1 hr prior to ATP stimulation for 1.5 hrs by ELISA relative to control; format: cell-based; settings: time 2.5 hrs
[10] = Stability in human liver microsomes assessed as compound remaining after 60 mins; format: ADME, Microsome; settings: read-out: Stability
[11] = Stability in mouse liver microsomes assessed as compound remaining after 60 mins; format: ADME, Microsome; settings: read-out: Stability
[12] = Half life in C57BL/6 mouse at 20 mg/kg, po; format: ADME, organism-based; settings: in vivo
[13] = target: T1, NACHT, LRR and PYD domains-containing protein 3; experiment: Inhibition of NLRP3 inflammasome in mouse BMDMs assessed as reduction in IL-1beta activity preincubated with LPS for 4 hrs followed by compound addition for 30 mins prior to nigericin addition and measured after 1 hr by ELISA; format: cell-based, BMDM
[14] = target: T1, NACHT, LRR and PYD domains-containing protein 3; experiment: Covalent inhibition of NLRP3 in mouse BMDMs assessed as reduction in LPS/nigericin induced IL-1beta secretion pretreated with LPS for 3 hrs followed by compound addition for 30 mins prior to nigericin addition and measured after 30 mins by ELISA; format: cell-based, BMDM
[15] = target: T2, NACHT, LRR and PYD domains-containing protein 3; experiment: Inhibition of NLRP3 in LPS/ATP induced human THP1 cells; format: cell-based, THP-1
[16] = Inhibition of porcine whole blood NLRP3 assessed as reduction in LPS/ATP induced IL-1beta secretion preincubated for 3 hrs in presence of LPS followed by ATP addition and measured after 1 hr by immunoassay; settings: Sus scrofa
[17] = Solubility of the compound at pH 1.5; format: physicochemical; settings: buffer

T1 sequence (Q8R4B8 whole entry, the tested form may be a part): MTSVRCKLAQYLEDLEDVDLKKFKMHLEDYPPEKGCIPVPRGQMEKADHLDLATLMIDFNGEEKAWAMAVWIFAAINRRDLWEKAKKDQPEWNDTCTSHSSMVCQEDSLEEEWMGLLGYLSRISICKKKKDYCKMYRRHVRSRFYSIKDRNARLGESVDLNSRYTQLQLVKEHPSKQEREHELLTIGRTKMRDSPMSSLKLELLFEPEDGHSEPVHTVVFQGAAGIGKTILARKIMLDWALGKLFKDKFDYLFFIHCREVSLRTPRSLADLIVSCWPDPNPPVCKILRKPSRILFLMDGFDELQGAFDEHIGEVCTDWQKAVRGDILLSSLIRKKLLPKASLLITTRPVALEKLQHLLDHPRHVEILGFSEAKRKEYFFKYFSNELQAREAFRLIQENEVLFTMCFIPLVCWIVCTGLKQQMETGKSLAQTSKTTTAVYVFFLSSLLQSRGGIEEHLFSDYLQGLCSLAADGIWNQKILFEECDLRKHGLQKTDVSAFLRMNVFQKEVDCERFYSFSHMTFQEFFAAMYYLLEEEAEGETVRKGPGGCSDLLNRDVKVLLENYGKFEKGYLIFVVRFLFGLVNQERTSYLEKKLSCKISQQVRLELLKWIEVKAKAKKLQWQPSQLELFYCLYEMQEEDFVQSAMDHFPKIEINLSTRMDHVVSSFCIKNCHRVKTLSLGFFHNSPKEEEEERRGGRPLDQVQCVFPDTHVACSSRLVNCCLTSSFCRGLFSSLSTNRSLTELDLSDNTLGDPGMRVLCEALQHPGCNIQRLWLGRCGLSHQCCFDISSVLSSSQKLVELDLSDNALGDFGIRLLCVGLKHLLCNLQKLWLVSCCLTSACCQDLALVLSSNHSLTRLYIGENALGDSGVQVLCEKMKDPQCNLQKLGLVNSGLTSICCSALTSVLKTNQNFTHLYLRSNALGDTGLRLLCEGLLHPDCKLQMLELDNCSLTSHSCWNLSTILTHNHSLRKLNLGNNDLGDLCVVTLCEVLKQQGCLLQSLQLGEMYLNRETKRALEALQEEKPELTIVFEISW
T2 sequence (Q96P20 whole entry, the tested form may be a part): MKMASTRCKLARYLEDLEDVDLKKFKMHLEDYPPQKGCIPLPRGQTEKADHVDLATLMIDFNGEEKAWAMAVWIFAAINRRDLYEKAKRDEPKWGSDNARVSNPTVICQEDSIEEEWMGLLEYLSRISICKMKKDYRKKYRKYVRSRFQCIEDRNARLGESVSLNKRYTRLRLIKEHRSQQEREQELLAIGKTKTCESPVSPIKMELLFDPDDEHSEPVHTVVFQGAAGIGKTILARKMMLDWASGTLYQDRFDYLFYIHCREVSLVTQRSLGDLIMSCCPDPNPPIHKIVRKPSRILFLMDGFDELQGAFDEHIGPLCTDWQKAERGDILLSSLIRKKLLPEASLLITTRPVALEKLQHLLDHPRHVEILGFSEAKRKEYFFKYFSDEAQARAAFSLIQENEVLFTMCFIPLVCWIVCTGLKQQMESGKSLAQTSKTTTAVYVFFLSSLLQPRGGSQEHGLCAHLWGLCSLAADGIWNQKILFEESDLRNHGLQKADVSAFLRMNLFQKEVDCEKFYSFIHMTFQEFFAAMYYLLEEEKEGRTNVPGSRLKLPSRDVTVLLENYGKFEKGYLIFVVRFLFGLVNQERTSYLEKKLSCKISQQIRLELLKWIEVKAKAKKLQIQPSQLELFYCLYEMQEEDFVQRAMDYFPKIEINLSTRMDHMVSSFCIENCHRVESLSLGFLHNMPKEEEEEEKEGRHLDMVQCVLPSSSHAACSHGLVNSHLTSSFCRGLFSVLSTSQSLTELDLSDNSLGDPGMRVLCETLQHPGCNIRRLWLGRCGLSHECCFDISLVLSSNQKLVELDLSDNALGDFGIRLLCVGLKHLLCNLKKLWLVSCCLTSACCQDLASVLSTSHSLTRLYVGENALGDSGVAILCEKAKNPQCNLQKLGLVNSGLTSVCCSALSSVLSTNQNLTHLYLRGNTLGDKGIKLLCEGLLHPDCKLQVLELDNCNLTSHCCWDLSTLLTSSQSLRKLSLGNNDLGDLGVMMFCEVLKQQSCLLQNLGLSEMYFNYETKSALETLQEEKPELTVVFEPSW

Structure (SMILES): O=C(/C=C/S(=O)(=O)c1ccccc1Cl)OCCc1ccccc1
IC50 [1]: 0.92 µM
CC50 [2]: 41.8 µM

Structure (SMILES): CS(=O)(=O)CCC#N
Cmax [3]: 41400 ng/mL
IC50 [4]: 1 µM

Structure (SMILES): CCOCCOc1ccc(/C=C/c2cc(OC)cc(OC)c2/C=C/[N+](=O)[O-])cc1
IC50 [6]: 2.41 µM

Structure (SMILES): CC1(C)OC(=O)C=C[C@]2(C)[C@H]3CC[C@@]4(C)[C@H](C5=CC(=O)NC5=O)C[C@H]5O[C@]54[C@]3(C)OC(=O)C[C@@H]12
IC50 [8]: 3.2 µM

Structure (SMILES): CC1(C)OC(=O)C=C[C@@]2(C)[C@H]1CC(=O)[C@@]1(C)C3=CC[C@@H](C4=CC(=O)O[C@@H]4O)[C@]3(C)CC[C@@H]12
IC50 [8]: 3.2 µM

Structure (SMILES): N#C/N=C(\NCc1ccccc1)NC1CCN(C(=O)CCc2ccccc2Cl)CC1
inhibition [9]: 25.2%

Structure (SMILES): CC(C)(O)c1coc(S(=O)(=O)NC(=O)Nc2c3c(cc4c2CCC4)CCC3)c1
remaining at 1 h [10]: > 70%
remaining at 1 h [11]: > 70%
half-life [12]: 3.27 h

Structure (SMILES): Cc1ccc(S(=O)(=O)/C=C/C#N)cc1
CC50 [2]: 6.4 µM

Structure (SMILES): CC(=O)O[C@@H]1C[C@H]2C(C)(C)OC(=O)C=C[C@]2(C)[C@H]2CC[C@]3(C)C(=CC[C@H]3C3=CC(=O)O[C@@H]3O)[C@@]21C
IC50 [8]: 3.2 µM

Structure (SMILES): CC1(C)CCC[C@@]2(C)C1=C(O)C(=O)c1cc(C(C)(C)O)c(O)c(O)c12
IC50 [5]: 0.23 µM

Structure (SMILES): COc1c(O)cc2c(c1C)C(=O)C=C1[C@@]2(C)CC[C@@]2(C)[C@@H]3C[C@@H](C)C(=O)[C@@H](O)[C@]3(C)CC[C@]12C
IC50 [13]: 1.15 µM

Structure (SMILES): CC(=O)O[C@H]1[C@@H](OC(C)=O)[C@@]2(C)C3=CC[C@@H](C4=CC(=O)O[C@@H]4O)[C@]3(C)CC[C@@H]2[C@@]2(C)C=CC(=O)OC(C)(C)[C@H]12
IC50 [8]: 3.2 µM

Structure (SMILES): O=C(CBr)NCc1ccc(C(F)(F)F)cc1
IC50 [14]: 0.183 µM

Structure (SMILES): O=C(CCc1ccccc1Cl)N1CCC(n2c(=O)[nH]c3ccccc32)CC1
inhibition [9]: 10.3%

Structure (SMILES): O=C(O)Cn1c(=O)n(C(=O)CCc2ccccc2Cl)c2ccccc21
inhibition [9]: 21.1%

Structure (SMILES): C=C(Cc1ccccc1Cl)C(=O)N1CCC(n2c(=O)[nH]c3ccccc32)CC1
inhibition [9]: 14.4%

Structure (SMILES): O=C(CCc1ccccc1Cl)NCCn1c(=O)[nH]c2ccccc21
inhibition [9]: 20.3%

Structure (SMILES): NS(=O)(=O)c1ccc(CCNC(=O)/C=C/S(=O)(=O)c2ccccc2Cl)cc1
IC50 [1]: 1.83 µM
CC50 [2]: 27.5 µM

The remaining lines, values ahead:

IC50 [5]: 0.23 µM
Structure (SMILES): CC(C)C1=CC2=C[C@H](O)[C@H]3C(C)(C)CCC[C@]3(C)[C@@]2(O)C(=O)C1=O

IC50 [7]: 0.016 µM
Structure (SMILES): CC(C)n1ccc(S(=O)(=O)NC(=O)Nc2c3c(cc4c2CCC4)CCC3)n1 [INZOMELID]

IC50 [5]: 0.23 µM
Structure (SMILES): CCO[C@@H]1C[C@H]2C(C)(C)CCC[C@]2(C)C2=C1C=C(C(C)C)C(=O)C2=O

IC50 [5]: 0.23 µM
Structure (SMILES): CC(=O)O[C@H]1C=C2C=C(C(C)C)C(=O)C(O)=C2[C@@]2(C)CCCC(C)(C)[C@H]12

IC50 [5]: 0.23 µM
Structure (SMILES): CO[C@@H]1C2=C(C(=O)C(=O)C(C(C)C)=C2)[C@@]2(C)CCCC(C)(C)[C@@H]2[C@H]1O

IC50 [15]: 5.18 µM
Structure (SMILES): C=C1C(=O)[C@]23[C@H](O)[C@H]1CC[C@H]2[C@@]12CO[C@]3(O)[C@@H](O)[C@@H]1C(C)(C)CC[C@@H]2O [ORIDONIN]

IC50 [16]: 0.35 µM
Structure (SMILES): CCN1CCC(S(=O)(=O)NC(=O)Nc2c3c(cc4c2CCC4)CCC3)CC1 [SELNOFLAST]

solubility [17]: 5760 µg/mL (≈ 13.3 mM)
Structure (SMILES): CN[C@@H]1COc2c(S(=O)(=O)NC(=O)Nc3c4c(cc5c3CCC5)CCC4)cnn2C1

IC50 [13]: 0.19 µM
Structure (SMILES): CC1=C(O)C(=O)C=C2C1=CC=C1[C@@]2(C)[C@@H](Br)C[C@@]2(C)[C@@H]3C[C@@H](C)C(=O)C[C@]3(C)CC[C@]12C

IC50 [5]: 0.23 µM
Structure (SMILES): CCO[C@H]1C[C@H]2C(C)(C)CCC[C@]2(C)C2=C1C=C(C(C)C)C(=O)C2=O
